These results are taken from BindingDB's records for doi:10.1021/jm030084x (University of Illinois At Urbana-Champaign, 2003).

In this test the target is farnesyl diphosphate synthase (Leishmania major). The test is described as follows: Inhibitory activity against Leishmania major Farnesyl-diphosphatesynthase (FPP synthase).

Bounds are passed on as bounds.

Turning to `O=P(O)(O)C(Nc1ccc(Cl)nc1)P(=O)(O)O` [[(6-Chloro-pyridin-3-ylamino)-phosphono-methyl]-phosphonic acid], the IC50 (in general, the concentration that inhibits the measured activity by half) is more than 100 µM. `Cc1cc(C)nc(NC(P(=O)(O)O)P(=O)(O)O)c1` [(4,6-dimethyl-2-pyridinyl)-aminomethylene-1,1-bisphosphonate] had an IC50 of more than 100 µM.
